Measured values published in US20220354863A1, “METHODS FOR THE PROPHYLACTIC TREATMENT OF CANCER IN PATIENTS SUFFERING FROM PANCREATITIS” (INSERM (INSTITUT NATIONAL DE LA SANTÈ ET DE LA RECHERCH …, priority 2019, published 2022).

Columns and labels:
p110γ = p110γ (Homo sapiens, UniProt P48736); details: read-out: in vitro IC50 γ; cited from earlier work
mTOR = mTOR (Homo sapiens, UniProt P42345); details: cited from earlier work
p110δ = p110δ (Homo sapiens, UniProt O00329); details: read-out: in vitro IC50 δ; cited from earlier work
C2β = C2β (Homo sapiens, UniProt O00750); details: read-out: in vitro IC50 C2β; cited from earlier work
[1] = tested on: caerulein-treated KC mice; test: Caerulein-induced pancreatic injury in oncogenic Kras (KC) mice; type: in vivo; details: KrasG12D background, 10 mg/kg by gavage
Description: The LSL-Kras^G12D (from D Tuveson, Mouse Models of Human Cancers Consortium repository (NCI-Frederick, USA), Pdx1-cre (from DA Melton, Harvard University, Cambridge, Mass., USA), p110α^lox (from B. Vanhaesebroeck, UCL, London), strains were interbred on mixed background (CD1/C57B16) to obtain compound mutant Pdx1-Cre;LSL-Kras^G12D (named KC), pdx1-Cre;p110α^lox/lox (Pdx1-Cre;p110α^lox/lox were named α^inC; pdx1-Cre;LSL-Kras^G12D;p110α^lox/lox were named Kα^inC). Littermates not expressing Cre as well as Pdx1-Cre and p110α^lox/lox mice of the same age were used as control. All procedures and animal housing are conformed to the regulatory standards and were approved by the Ethical committee according to European legislation translated to French Law as Décret 2013-118 1 Feb. 2013 (APAFIS 3601-2015121622062840). Genotyping was performed as described: the genetically modified allele is called p110α^lox or p110α^ΔDFG (here named Rec) after Cre recombination. DFG is a conserved motif in the activation loop of the p110α kinase domain critical for its catalytic activity. The gene targeting strategy used is different from a traditional conditional knock-out strategy. […] Primers corresponds to post-cre primers used to verify the presence of recombined allele ΔDFG: ma9: -[…]; ma5: […]; annealing temperature: 65° C.; recombined ΔDFG-544 bp, wild type (+) or unrecombined lox- >10 kbp amplicon. Genotyping of tail or pancreas samples was performed after DNA extraction with Sigma kit (XNAT-100RXN).
Animals were euthanized 1, 3, 7 or 17 days later, and recombination verified before analysis as described in [44, 45].
Immunostainings were conducted using standard methods on formalin-fixed, paraffin-embedded tissues, including both mice and human pancreas.

C2α = C2α (Homo sapiens, UniProt O00443); details: read-out: in vitro IC50 C2α; cited from earlier work
p110β = p110β (Homo sapiens, UniProt P42338); details: read-out: in vitro IC50 β; cited from earlier work
vps34 = vps34 (Homo sapiens, UniProt Q8NEB9); details: read-out: in vitro IC50 vps34; cited from earlier work

Sequence of C2β (O00750 whole entry): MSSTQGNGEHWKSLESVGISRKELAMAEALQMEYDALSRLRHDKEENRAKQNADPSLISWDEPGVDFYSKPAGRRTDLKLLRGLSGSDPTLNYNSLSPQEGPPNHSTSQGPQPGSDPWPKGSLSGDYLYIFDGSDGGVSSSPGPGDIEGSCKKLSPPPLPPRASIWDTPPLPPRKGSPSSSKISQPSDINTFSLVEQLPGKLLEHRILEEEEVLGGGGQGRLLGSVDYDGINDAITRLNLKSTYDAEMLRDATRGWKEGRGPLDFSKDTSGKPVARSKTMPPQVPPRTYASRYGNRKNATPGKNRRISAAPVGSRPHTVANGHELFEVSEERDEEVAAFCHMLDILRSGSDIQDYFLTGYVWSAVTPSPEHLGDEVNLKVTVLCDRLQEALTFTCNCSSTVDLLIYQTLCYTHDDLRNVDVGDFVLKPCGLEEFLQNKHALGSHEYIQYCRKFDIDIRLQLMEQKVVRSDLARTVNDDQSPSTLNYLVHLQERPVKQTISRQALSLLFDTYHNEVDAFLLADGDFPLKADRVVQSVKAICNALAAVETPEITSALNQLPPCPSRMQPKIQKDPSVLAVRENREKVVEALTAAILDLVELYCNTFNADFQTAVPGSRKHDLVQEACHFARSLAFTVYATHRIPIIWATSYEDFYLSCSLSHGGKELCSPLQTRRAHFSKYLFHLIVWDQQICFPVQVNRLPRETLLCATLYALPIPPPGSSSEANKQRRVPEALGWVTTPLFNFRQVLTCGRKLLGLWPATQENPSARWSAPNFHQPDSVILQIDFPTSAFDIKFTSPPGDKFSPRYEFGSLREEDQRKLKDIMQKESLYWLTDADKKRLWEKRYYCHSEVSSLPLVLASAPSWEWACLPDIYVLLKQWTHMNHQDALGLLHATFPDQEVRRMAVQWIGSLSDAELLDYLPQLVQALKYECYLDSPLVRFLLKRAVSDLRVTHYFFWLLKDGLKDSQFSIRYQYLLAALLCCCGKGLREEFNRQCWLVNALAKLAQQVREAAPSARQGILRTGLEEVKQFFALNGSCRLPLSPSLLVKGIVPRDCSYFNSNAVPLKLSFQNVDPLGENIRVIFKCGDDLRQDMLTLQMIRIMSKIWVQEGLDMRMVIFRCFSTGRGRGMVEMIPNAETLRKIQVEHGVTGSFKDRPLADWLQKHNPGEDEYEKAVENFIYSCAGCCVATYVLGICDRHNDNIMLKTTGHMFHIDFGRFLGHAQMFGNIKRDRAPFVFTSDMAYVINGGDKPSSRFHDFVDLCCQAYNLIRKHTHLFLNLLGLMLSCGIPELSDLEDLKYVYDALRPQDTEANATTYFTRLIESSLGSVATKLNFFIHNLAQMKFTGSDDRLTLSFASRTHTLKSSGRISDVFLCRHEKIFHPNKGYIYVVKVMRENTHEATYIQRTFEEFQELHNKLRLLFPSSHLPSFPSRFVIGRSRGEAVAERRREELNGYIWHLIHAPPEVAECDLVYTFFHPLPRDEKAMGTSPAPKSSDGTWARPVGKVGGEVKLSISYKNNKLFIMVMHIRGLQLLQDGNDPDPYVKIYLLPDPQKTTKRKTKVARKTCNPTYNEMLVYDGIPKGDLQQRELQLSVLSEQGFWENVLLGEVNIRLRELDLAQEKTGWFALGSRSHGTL
Sequence of p110γ (P48736 whole entry): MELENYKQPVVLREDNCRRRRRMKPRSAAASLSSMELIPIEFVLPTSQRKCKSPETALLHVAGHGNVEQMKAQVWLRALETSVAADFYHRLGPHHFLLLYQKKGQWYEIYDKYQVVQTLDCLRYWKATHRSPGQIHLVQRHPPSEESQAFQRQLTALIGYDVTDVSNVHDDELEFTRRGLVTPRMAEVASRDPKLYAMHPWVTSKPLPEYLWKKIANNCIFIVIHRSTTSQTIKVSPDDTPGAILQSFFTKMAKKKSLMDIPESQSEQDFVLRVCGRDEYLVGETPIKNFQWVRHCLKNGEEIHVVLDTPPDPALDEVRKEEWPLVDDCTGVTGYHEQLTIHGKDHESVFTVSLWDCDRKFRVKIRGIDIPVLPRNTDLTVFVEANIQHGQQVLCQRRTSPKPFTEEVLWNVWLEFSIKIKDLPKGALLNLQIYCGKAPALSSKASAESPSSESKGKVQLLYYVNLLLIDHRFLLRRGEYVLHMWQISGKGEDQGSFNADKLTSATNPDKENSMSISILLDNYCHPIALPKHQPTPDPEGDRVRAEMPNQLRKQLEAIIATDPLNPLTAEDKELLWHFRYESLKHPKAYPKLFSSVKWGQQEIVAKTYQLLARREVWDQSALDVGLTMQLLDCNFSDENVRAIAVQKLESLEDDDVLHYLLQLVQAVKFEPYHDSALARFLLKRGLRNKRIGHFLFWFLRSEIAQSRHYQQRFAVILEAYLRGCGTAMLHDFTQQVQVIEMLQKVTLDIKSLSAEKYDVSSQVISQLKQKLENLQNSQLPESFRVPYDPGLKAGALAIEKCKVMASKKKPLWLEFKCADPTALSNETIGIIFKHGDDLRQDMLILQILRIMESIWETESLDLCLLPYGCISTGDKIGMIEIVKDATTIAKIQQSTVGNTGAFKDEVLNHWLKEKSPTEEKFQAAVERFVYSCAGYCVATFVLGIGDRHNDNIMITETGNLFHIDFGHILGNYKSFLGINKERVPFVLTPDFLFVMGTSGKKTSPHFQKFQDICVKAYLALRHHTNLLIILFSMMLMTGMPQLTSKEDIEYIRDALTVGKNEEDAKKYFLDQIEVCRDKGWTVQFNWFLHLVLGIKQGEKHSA
Sequence of p110β (P42338 whole entry): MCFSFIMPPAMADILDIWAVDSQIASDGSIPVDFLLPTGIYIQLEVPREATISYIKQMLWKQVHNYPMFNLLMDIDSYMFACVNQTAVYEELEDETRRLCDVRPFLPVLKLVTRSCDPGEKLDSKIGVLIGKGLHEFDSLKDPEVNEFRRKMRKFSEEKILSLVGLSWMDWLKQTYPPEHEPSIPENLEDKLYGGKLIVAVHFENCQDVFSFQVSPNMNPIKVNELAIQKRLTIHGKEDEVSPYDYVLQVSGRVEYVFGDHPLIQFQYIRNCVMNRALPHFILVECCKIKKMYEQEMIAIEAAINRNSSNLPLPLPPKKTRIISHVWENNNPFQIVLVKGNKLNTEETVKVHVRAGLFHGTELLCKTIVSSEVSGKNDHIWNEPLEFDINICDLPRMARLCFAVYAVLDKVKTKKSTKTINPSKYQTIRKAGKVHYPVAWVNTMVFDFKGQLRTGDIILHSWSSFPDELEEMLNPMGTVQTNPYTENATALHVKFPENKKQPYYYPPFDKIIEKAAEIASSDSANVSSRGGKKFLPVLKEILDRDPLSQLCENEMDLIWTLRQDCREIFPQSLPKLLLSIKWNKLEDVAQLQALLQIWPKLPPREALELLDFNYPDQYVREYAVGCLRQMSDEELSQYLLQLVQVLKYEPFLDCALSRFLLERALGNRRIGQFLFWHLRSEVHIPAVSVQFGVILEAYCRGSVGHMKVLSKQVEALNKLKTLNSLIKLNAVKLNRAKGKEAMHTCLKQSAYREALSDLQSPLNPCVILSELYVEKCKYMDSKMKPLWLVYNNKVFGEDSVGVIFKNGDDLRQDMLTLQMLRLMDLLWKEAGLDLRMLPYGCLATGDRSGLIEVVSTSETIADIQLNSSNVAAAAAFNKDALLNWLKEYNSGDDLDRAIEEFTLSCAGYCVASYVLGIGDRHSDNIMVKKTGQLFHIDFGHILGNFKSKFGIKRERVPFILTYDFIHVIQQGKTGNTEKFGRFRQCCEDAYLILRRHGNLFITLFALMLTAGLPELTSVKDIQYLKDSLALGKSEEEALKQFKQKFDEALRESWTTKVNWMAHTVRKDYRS
Sequence of p110β (P27986 whole entry partner): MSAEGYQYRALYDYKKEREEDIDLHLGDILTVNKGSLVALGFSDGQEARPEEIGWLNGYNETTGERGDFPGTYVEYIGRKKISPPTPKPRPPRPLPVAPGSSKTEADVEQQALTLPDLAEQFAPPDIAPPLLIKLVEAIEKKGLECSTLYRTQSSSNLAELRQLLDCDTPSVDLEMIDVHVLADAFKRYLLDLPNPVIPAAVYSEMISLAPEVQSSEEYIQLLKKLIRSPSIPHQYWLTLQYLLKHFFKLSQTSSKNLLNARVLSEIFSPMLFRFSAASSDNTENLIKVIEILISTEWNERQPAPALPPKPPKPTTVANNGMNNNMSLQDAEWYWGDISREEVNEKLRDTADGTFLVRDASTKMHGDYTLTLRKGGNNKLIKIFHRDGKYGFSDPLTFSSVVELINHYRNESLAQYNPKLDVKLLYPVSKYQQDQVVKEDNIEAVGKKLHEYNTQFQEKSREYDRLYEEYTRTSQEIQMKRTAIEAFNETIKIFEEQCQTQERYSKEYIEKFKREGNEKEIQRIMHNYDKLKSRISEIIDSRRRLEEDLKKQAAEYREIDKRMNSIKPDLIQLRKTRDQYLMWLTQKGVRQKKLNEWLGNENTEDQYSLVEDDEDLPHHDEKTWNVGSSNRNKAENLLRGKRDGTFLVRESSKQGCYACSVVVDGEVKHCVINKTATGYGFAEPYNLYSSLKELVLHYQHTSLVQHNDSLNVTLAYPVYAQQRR

**Q.** Which IC50 (p110γ) does the source give for CC(C)n1ncnc1-c1cn2c(n1)-c1ccc(O[C@@H](C)C(N)=O)cc1OCC2 [GDC0326, (S)-2-((2-(1-Isopropyl-1H-1,2,4-triazol-5-yl)-5,6-dihydrobenzo[f]imidazo [1,2-d][1,4]oxazepin-9-yl)oxy)propanamide] here?
**A.** 51 nM

**Q.** And the Ki (mTOR)?
**A.** 4300 nM

**Q.** What about the IC50 (p110δ) of the same compound?
**A.** 20 nM

**Q.** And the IC50 (C2β)?
**A.** 261 nM

**Q.** What about the “activation of the stromal compartment (CD18 immune cell staining, picrosirius red collagen deposit staining)” value [1] of the same compound?
**A.** reversed the activation of the stromal compartment

**Q.** And the lesion area ([1]; day 17, compared to caerulein-treated KC mice that received vehicle)?
**A.** significant decrease of lesion area

**Q.** And the p-Akt substrate staining ([1]; day 17, vs vehicle)?
**A.** absence of p-Akt Subsrate staining

**Q.** What about the IC50 (C2α) of the same compound?
**A.** > 10000 nM

**Q.** And the IC50 (p110β)?
**A.** 133 nM

**Q.** And the IC50 (vps34)?
**A.** 2840 nM
